The values that follow come from US6653478B2, “Substituted benzimidazol-2-ones as vasopressin receptor antagonists and neuropeptide Y modulators” (Ortho-McNeil Pharmaceutical, Inc., priority 2000, dated 2003).

pIC50: −log10 of the molar value. Structures can show the parent of a compound that is named as a salt.

The target in one assay is human V2 receptor (Homo sapiens, UniProt P30518). Description: V2 binding assay (3H-AVP displacement, HEK-293 membranes). Details: expressed in transfected cells; host or cells: HEK-293 (membranes). Conditions: 1.0 μM compound; for inhibition at 1 µM: read-out: V2@1.0, % Inh. The procedure, abridged:
(§1)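 Each well: membranes, test compound (from 10% DMSO working stock), 3H-AVP. Buffer pH 7.5 with 0.1% BSA and protease inhibitors; 1 h, room temperature. Non-specific binding: 1.25 μM AVP. Filter, wash, count.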

In the next assay the target is T1, human V1b receptor (Homo sapiens, UniProt P47901).
T1 sequence (P47901 1-424): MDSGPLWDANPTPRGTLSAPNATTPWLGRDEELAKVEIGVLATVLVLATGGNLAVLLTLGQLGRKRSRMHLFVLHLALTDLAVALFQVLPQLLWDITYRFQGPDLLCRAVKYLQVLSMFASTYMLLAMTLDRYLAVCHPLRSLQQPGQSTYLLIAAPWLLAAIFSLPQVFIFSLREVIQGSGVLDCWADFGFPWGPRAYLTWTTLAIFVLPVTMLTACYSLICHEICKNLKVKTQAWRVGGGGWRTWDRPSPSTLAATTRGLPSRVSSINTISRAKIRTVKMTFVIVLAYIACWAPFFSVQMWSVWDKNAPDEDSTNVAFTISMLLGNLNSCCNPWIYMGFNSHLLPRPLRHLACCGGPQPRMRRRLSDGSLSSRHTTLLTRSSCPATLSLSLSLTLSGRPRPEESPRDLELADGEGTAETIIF
The assay is described as follows: V1b binding assay (3H-AVP displacement, HEK-293 membranes). Further details: expressed in transfected cells; host or cells: HEK-293 (membranes). Conditions: for inhibition at 10 µM: 10 μM compound, read-out: V1b % Inh @10; for inhibition at 1 µM: read-out: V1b@1.0, % Inh. A digest of the protocol:
as §1

For another assay, the target named is human V1a receptor (Homo sapiens, UniProt P37288). The assay is described as follows: V1a binding assay (3H-AVP displacement, HEK-293 membranes). Conditions: for inhibition at 0.1 µM: 0.1 μM compound, read-out: V1a % Inh @0.1; for inhibition at 1 µM: read-out: V1a@1.0, % Inh. Further details: expressed in transfected cells; host or cells: HEK-293 (membranes). A digest of the protocol:
as §1

In a further assay the target is T2, NPY2 receptors (Homo sapiens, UniProt P49146).
T2 construct: Cell Membranes from KAN-TS cells having NPY2 receptors; endogenous in cells; host or cells: KAN-TS cells (membranes)
T2 sequence (P49146 1-381): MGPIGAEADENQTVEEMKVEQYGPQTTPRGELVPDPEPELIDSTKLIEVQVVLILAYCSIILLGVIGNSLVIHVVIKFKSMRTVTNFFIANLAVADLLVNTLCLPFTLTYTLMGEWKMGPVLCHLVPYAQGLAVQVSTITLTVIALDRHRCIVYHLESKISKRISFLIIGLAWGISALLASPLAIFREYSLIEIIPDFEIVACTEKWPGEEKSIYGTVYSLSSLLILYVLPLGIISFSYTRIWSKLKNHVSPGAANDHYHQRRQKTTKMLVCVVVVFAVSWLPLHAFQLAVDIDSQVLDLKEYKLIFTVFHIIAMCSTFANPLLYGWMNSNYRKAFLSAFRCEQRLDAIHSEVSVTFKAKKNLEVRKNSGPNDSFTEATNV
Description: Neuropeptide Y receptor binding assay (125I-PYY, KAN-TS cell membranes). Conditions: 10 μM compound; for inhibition at 10 µM: read-out: NPY-2@10, % Inh. A digest of the protocol:
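Membranes from KAN-TS cells competed with 125I-PYY in binding buffer containing BSA, test compound at 10 μM final, 1 hr at room temperature. Nonspecific binding defined with 1 μM PYY final. Tubes centrifuged, washed with PBS and bound radioactivity gamma-counted.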

Chain of human V1a receptor (P37288 whole entry): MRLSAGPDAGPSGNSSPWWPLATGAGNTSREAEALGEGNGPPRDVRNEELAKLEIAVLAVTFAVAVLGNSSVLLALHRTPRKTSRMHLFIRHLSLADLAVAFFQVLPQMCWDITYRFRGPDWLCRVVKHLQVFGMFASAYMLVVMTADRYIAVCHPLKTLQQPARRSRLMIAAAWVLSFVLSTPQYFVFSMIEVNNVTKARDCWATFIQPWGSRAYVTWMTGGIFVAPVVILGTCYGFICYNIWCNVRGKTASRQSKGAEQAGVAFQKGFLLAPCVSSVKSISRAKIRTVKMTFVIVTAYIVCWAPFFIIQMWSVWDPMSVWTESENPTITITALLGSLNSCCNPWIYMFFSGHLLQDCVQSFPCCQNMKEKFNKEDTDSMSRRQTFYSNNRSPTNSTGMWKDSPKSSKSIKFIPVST
Chain of human V2 receptor (P30518 whole entry): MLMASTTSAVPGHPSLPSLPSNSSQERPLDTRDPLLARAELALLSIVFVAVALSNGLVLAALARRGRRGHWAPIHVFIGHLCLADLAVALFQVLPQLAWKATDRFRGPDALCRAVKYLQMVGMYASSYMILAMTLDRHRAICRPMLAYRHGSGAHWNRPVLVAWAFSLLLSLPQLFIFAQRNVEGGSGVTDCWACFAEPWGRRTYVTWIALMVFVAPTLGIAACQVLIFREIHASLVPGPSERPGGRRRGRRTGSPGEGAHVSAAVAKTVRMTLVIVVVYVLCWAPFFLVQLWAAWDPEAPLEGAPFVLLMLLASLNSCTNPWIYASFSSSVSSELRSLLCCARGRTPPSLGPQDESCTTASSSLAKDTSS

Turning to `NCCCn1c(=O)n(C2CCN(C(=S)NC(c3ccccc3)c3ccccc3)CC2)c2cc(Cl)c(Cl)cc21` [Compound 67, 5,6-Dichloro-1-[(N1-piperidinocarbothioylbenzhydrylamino)-4-yl]-3-(3-aminopropyl)-1,3-dihydro-benzimidazol-2-one], on human V2 receptor, the inhibition at 1 µM worked out at 0%. Besides, the inhibition at 10 µM on human V1b receptor was found to be 45%; on NPY2 receptors, 2%. For the same compound, on human V1a receptor, the inhibition at 0.1 µM turned out to be 57%.

For orientation: pIC50 means the IC50 on a negative log10 scale, so that one unit is a factor of ten. On to `COc1ccc(C(NC(=S)N2CCC(n3c(=O)n(CCCN)c4ccccc43)CC2)c2ccc(OC)cc2)cc1` [Compound 68, 1-[(N1-Piperidinocarbothioyl-1,1-di(p-anisyl)methylamino)-4-yl]-3-(3-aminopropyl)-1,3-dihydrobenzimidazol-2-one Hydrochloride], for which, on human V2 receptor, the inhibition at 1 µM amounted to 0%. Also, on human V1b receptor, the pIC50 was 5.34. For the same compound, the values for the inhibition at 10 µM on human V1b receptor and at NPY2 receptors were 66% and 11%, respectively. The inhibition at 0.1 µM on human V1a receptor was 46%.

For `NC(=O)CCn1c(=O)n(C2CCN(C(=S)NC(c3ccccc3)c3ccccc3)CC2)c2ccccc21` [Compound 69, 1-[(N1-piperidinocarbothioyldiphenylmethylamino)-4-yl]-3-(2-amidoethyl)-1,3-dihydro-benzimidazol-2-one], the inhibition at 1 µM came out at 0% on human V2 receptor and 22% at human V1a receptor (1.0 μM compound). For the same compound, the inhibition at 10 µM at human V1b receptor was determined as 27%; at NPY2 receptors, 40%.

Consider `CN(C)CCCn1c(=O)n(C2CCN(C(=S)NC(c3ccccc3)c3ccccc3)CC2)c2ccccc21` [Compound 71, 1-[(N1-piperidinocarbothioylbenzhydrylamino)-4-yl]-3-(3-N,N-dimethylaminopropyl)-1,3-dihydrobenzimidazol-2-one], for which the inhibition at 1 µM at human V2 receptor is 0%. Moreover, the pIC50 at human V1b receptor was 6.06; at human V1a receptor, 7.54. Further, the inhibition at 10 µM on human V1b receptor was 88%; on NPY2 receptors, 79%.

Turning to `O=c1n(CCCN2CCCC2)c2ccccc2n1C1CCN(C(=S)NC(c2ccccc2)c2ccccc2)CC1` [Compound 73, 1-[(N1-piperidinocarbothioylbenzhydrylamino)-4-yl]-3-(3-N-pyrrolidinopropyl)-1,3-dihydro-benzimidazol-2-one], the inhibition at 1 µM at human V2 receptor was 0%. Further, the results for the pIC50 on human V1b receptor and on human V1a receptor were 6.52 and 7.80, respectively. In addition, on NPY2 receptors, the inhibition at 10 µM worked out at 89%.

For the compound `O=C(NCc1ccccc1)N1CCC(n2c(=O)[nH]c3ccccc32)CC1` [Compound 74], the inhibition at 1 µM on human V2 receptor and on human V1a receptor (1.0 μM compound) was 0% in each case. The inhibition at 10 µM stood at 29% at human V1b receptor and 0% on NPY2 receptors.

Regarding `O=C(NC(c1ccccc1)c1ccccc1)N1CCC(n2c(=O)[nH]c3ccccc32)CC1` [Compound 75], the inhibition at 1 µM at human V2 receptor was 0%; at human V1a receptor (1.0 μM compound), 58%. Further, the pIC50 at human V1b receptor is 6.00. Further, the inhibition at 10 µM on NPY2 receptors worked out at 12%.

In the case of `CC(=O)NCCCn1c(=O)n(C2CCN(C(=S)NC(c3ccccc3)c3ccccc3)CC2)c2ccccc21` [Compound 76, 1-[(N1-Piperidinocarbothioyldiphenylmethylamino)-4-yl]-3-(3-acetamidopropyl)-1,3-dihydrobenzimidazol-2-one], the inhibition at 1 µM at human V2 receptor stood at 0%. The values for the inhibition at 10 µM on human V1b receptor and on NPY2 receptors were 25% and 41%, respectively. At human V1a receptor, this compound had a pIC50 of 6.60.

As for `NCCCn1c(=O)n(C2CCN(C(=O)NC(c3ccccc3)c3ccccc3)CC2)c2ccccc21` [Compound 77, 1-[(N1-Piperidinocarbonyldiphenylmethylamino)-4-yl]-3-(3-aminopropyl)-1,3-dihydrobenzimidazol-2-one], the inhibition at 1 µM on human V2 receptor came to 0%. Further, the inhibition at 10 µM turned out to be 30% on human V1b receptor and 10% on NPY2 receptors. Further, the pIC50 on human V1a receptor is 7.10.

Consider `CN1CCN(CCCn2c(=O)n(C3CCN(C(=S)NC(c4ccccc4)c4ccccc4)CC3)c3ccccc32)CC1` [Compound 78, 1-[(N1-piperidinocarbothioylbiphenylmethylamino)-4-yl]-3-(3-N-(N-Methylpiperazino)propyl)-1,3-dihydrobenzimidazol-2-one], for which the inhibition at 1 µM amounted to 17% on human V2 receptor and 95% at human V1a receptor (1.0 μM compound). Moreover, the inhibition at 10 µM was determined as 41% on human V1b receptor and 74% at NPY2 receptors.

Consider `CCCN(CCC)CCCn1c(=O)n(C2CCN(C(=S)NC(c3ccccc3)c3ccccc3)CC2)c2ccccc21` [Compound 79, 1-[(N1-piperidinocarbothioylbiphenylmethylamino)-4-yl]-3-(3-N,N-dipropylaminopropyl)-1,3-dihydrobenzimidazol-2-one], for which the inhibition at 1 µM on human V2 receptor worked out at 13%; at human V1b receptor (1.0 μM compound) it was 48%. On human V1a receptor, this compound gave a negative-log IC50 (pIC50) of 7.80. Further, on NPY2 receptors, the inhibition at 10 µM was determined as 80%.

As to `O=c1n(CCCN2CCCCC2)c2ccccc2n1C1CCN(C(=S)NC(c2ccccc2)c2ccccc2)CC1` [Compound 81, 1-[(N1-piperidinocarbothioylbiphenylmethylamino)-4-yl]-3-(3-N-piperidinylpropyl)-1,3-dihydrobenzimidazol-2-one], the inhibition at 1 µM at human V2 receptor came to 18%. For the same compound, the negative-log IC50 (pIC50) at human V1b receptor was 7.12; on human V1a receptor it was 8.40. In addition, the inhibition at 10 µM on NPY2 receptors turned out to be 89%.

In the case of `CC1CC(C)CN(CCCn2c(=O)n(C3CCN(C(=S)NC(c4ccccc4)c4ccccc4)CC3)c3ccccc32)C1` (centres unmarked) [Compound 82], the inhibition at 1 µM on human V2 receptor came out at 11%. The results for the pIC50 on human V1b receptor and on human V1a receptor were 6.85 and 8.22, respectively. In addition, the inhibition at 10 µM on NPY2 receptors turned out to be 91%.

Consider `CCOC(=O)C1CCN(CCCn2c(=O)n(C3CCN(C(=S)NC(c4ccccc4)c4ccccc4)CC3)c3ccccc32)CC1` [Compound 83, 1-[(N1-piperidinocarbothioylbiphenylmethylamino)-4-yl]-3-[3-(4-ethylcarboxypiperidine)propyl]-1,3-dihydrobenzimidazol-2-one], for which the inhibition at 1 µM is 2% at human V2 receptor and 47% on human V1b receptor (1.0 μM compound). Besides, at human V1a receptor, the pIC50 was 7.36. Also, the inhibition at 10 µM at NPY2 receptors came out at 79%.

With `O=c1n(CCCN2CCOCC2)c2ccccc2n1C1CCN(C(=S)NC(c2ccccc2)c2ccccc2)CC1` [Compound 84, 1-[(N1-piperidinocarbothioylbiphenylmethylamino)-4-yl]-3-(3-morpholinopropyl)-1,3-dihydrobenzimidazol-2-one], the inhibition at 1 µM on human V2 receptor was 8%. Besides, the values for the pIC50 at human V1b receptor and at human V1a receptor were 6.56 and 7.66, respectively. In addition, the inhibition at 10 µM on NPY2 receptors was 73%.

`CCN(CC)CCCn1c(=O)n(C2CCN(C(=S)NC(c3ccccc3)c3ccccc3)CC2)c2ccccc21` [Compound 85, 1-[(N1-piperidinocarbothioylbiphenylmethylamino)-4-yl]-3-(3-N,N-diethylaminopropyl)-1,3-dihydrobenzimidazol-2-one]: the inhibition at 1 µM at human V2 receptor worked out at 8%. The figures for the negative logarithm of the IC50 (pIC50) on human V1b receptor and at human V1a receptor were 6.64 and 7.70, respectively. For the same compound, on NPY2 receptors, the inhibition at 10 µM was 81%.

As to `COC(=O)C(Cc1ccccc1)NC(=S)N1CCC(n2c(=O)n(CCCN3CCCC3)c3ccccc32)CC1` [Compound 86, 1-[(N1-Piperidinocarbothioyl-(2-phenyl-1-L-carboxymethyl)amino-4-yl)-4-yl]-3-(3-pyrrolidinylpropyl)-1,3-dihydrobenzimidazol-2-one], on human V2 receptor, the inhibition at 1 µM was 3%. The negative-log IC50 (pIC50) at human V1b receptor is 5.92; at human V1a receptor, 7.89. Further, on NPY2 receptors, the inhibition at 10 µM turned out to be 10%.

Turning to `COc1ccccc1NC(=S)N1CCC(n2c(=O)n(CCCN3CCCC3)c3ccccc32)CC1` [Compound 87, 1-[(N1-Piperidinocarbothioyl-(2-methoxyphenyl)amino)-4-yl]-3-(3-pyrrolidinylpropyl)-1,3-dihydrobenzimidazol-2-one], the “V2@1.0, % Inh” value on human V2 receptor is 3%. Moreover, at human V1b receptor (1.0 μM compound), the “V1b@1.0, % Inh” value stood at 23%. Besides, on human V1a receptor (1.0 μM compound), the “V1a@1.0, % Inh” value was found to be 30%. Moreover, at NPY2 receptors, the “NPY-2@10, % Inh” value came out at 13%.
